Source: patent US20150025120A1, “PYRAZOLE-ALCOHOL COMPOUNDS AND PHARMACEUTICAL USE THEREOF” (JAPAN TOBACCO INC., priority 2013, published 2015)
pIC50: −log10 of the molar value.

Key:
[1] = tested on: tissue PDH activity; assay: Ex vivo PDH activation assay (liver and epididymal adipose tissue after oral administration); format: in vivo, Sprague-Dawley rats; conditions: 3 mg/kg, rat, mean ± standard deviation
Procedure: The action of test compound on tissue PDH activity was evaluated. NADH production was detected via p-iodonitrotetrazolium violet (INT)-coupled system to measure PDH activity.
Normal male Sprague-Dawley rats were randomly allocated to the vehicle group and the test compound groups. The vehicle (0.5% aqueous methylcellulose solution, 5 mL/kg) or the test compound was orally administered to the rats. At 5 or 20 hr after administration, the rats were anesthetized with an intraperitoneal injection of sodium pentobarbital (60 mg/kg), and liver slices and epididymal adipose tissues were collected.
(§1) To the liver slices were rapidly added 9 volumes of ice-cold homogenization buffer (0.25 mol/L sucrose, 5 mmol/L tris(hydroxymethyl)aminomethane hydrochloride (pH 7.5), 2 mmol/L EDTA), and the mixtures were homogenized using a Polytron homogenizer. The homogenates were centrifuged at 600×g, 4° C. for 10 min to obtain the supernatant. The supernatants (1 mL) were centrifuged at 16,000×g, 4° C. for 10 min to collect the precipitates. The precipitates were washed by resuspension in the homogenization buffer (1 mL) and centrifuged in the same manner. The precipitates were frozen with liquid nitrogen and stored at −80° C. as the liver mitochondrial fraction.
as §1, with “adipose tissues” for “liver slices”, “3” for “9”, “of an” for “of”, “buffer,” for “buffer (0.25 mol/L sucrose, 5 mmol/L tris(hydroxymethyl)aminomethane hydrochloride (pH 7.5), 2 mmol/L EDTA),”, “supernatants” for “supernatants (1 mL)”, “adipose tissue” for “liver”
The mitochondrial fractions were thawed and suspended with the sample buffer (0.25 mol/L sucrose, 20 mmol/L tris(hydroxymethyl)aminomethane hydrochloride (pH 7.5), 50 mmol/L potassium chloride, and 1 mL/L 4-(1,1,3,3-tetramethylbutyl)phenyl-polyethylene glycol (Triton X-100)). Active PDH activity (PDHa activity) and total PDH activity (PDHt activity) were measured to evaluate the PDH activity. For the measurement of the PDHt activity, equal amounts of the mitochondrial suspension and the activation buffer (0.25 mol/L sucrose, 20 mmol/L tris(hydroxymethyl)aminomethane hydrochloride (pH 7.5), 50 mmol/L potassium chloride, 1 mL/L Triton X-100, 4 mmol/L calcium chloride, 40 mmol/L magnesium chloride, 10 mmol/L sodium dichloroacetate) were mixed, and the mixtures were incubated at 37° C. for 10 min. Forty microliters of the mitochondrial suspensions diluted with a sample buffer were added to a 96-well microplate for activity measurement and blank measurement. Then 180 μL of the reaction mixture (0.056 mmol/L potassium phosphate buffer (pH 7.5), 5.6 mmol/L DL-carnitine, 2.8 mmol/L NAD, 0.22 mmol/L thiamin pyrophosphate, 0.11 mmol/L Coenzyme A, 1.1 mL/L Triton X-100, 1.1 mmol/L magnesium chloride, 1.1 g/L bovine serum albumin, 0.67 mmol/L INT, 7.2 μmol/L phenazine methosulfate, 28 mmol/L sodium oxamate) was added to each well, and then 20 μL of 50 mmol/L sodium pyruvate for activity measurement or water for blank measurement were added. The mixtures were incubated at room temperature under shading. The absorbances at 500-750 nm, which were attributable to reduction of INT, the final electron acceptor, were measured using a microplate reader over time and the changes in the absorbance were calculated. The PDH activity was calculated by subtraction of the change in absorbance of the blank well from that of the activity measurement well. The percentage of the PDHa activity to the PDHt activity was calculated and taken as an index of the PDH activation.

[2] = biological target: T1, human PDHK2 (hPDHK2) (Homo sapiens, UniProt Q15119); assay: Inhibitory action of PDHK2 activity in vitro (residual PDH activity after kinase reaction); format: biochemical
T1 construct: made in house; host or cells: Escherichia coli BL21(DE3), pET17b
Procedure: The inhibitory action of PDHK activity was assessed indirectly by measuring the residual PDH activity after kinase reaction in the presence of a test compound.
In the case of human PDHK2 (hPDHK2, Genbank Accession No. BC040478.1), modified hPDHK2 cDNA wherein FLAG-Tag sequence was added to the N terminus of hPDHK2 cDNA clone (pReceiver-M01/PDK2-GeneCopoeia) was prepared by PCR and cloned into a vector (pET17b-Novagen). The recombinant construct was transformed into Escherichia coli (DH5α-TOYOBO). The recombinant clones were identified, and plasmid DNA was isolated and subjected to the DNA sequence analysis. One clone which had the expected nucleic acid sequence was selected for expression work.
For expression of hPDHK2 activity, Escherichia coli strain BL21(DE3) cells (Novagen) were transformed with the pET17b vector containing modified hPDHK2 cDNA. The Escherichia coli were grown to an optical density 0.6 ([…]) at 30° C. Protein expression was induced by the addition of 500 μmol/L isopropyl-β-thiogalactopyranoside. The Escherichia coli were cultured at 30° C. for 5 hr and harvested by centrifugation. Resuspension of the Escherichia coli paste was disrupted by a microfluidizer. FLAG-Tagged protein was purified using FLAG affinity gel. The gel was washed with 20 mmol/L HEPES-NaOH, 500 mmol/L sodium chloride, 1% ethylene glycol, and 0.1% Pluronic F-68 (pH 8.0), and the binding protein was eluted with 20 mmol/L HEPES-NaOH, 100 μg/mL FLAG peptide, 500 mmol/L sodium chloride, 1% ethylene glycol, and 0.1% Pluronic F-68 (pH 8.0). The eluted fractions containing FLAG-Tagged protein were pooled, dialyzed against 20 mmol/L HEPES-NaOH, 150 mmol/L sodium chloride, 0.5 mmol/L EDTA, 1% ethylene glycol, and 0.1% Pluronic F-68 (pH 8.0), and preserved at −80° C.
0.05 U/mL PDH and 0.8 μg/mL hPDHK2 were mixed in a buffer (50 mmol/L 3-morpholinopropanesulfonic acid (pH 7.0), 20 mmol/L dipotassium hydrogen phosphate, 60 mmol/L potassium chloride, 2 mmol/L magnesium chloride, 0.4 mmol/L EDTA, and 0.2% Pluronic F-68, 2 mmol/L dithiothreitol), and the mixture was incubated at 4° C. overnight to obtain a PDH/hPDHK2 complex. The test compounds were diluted with DMSO. […] DMSO (1.5 μL) was added to control wells instead of the test compound. […] The mixture was incubated at room temperature for 90 min, and the residual PDH activity was measured. The absorbance at 340 nm before and after PDH reaction was measured using a microplate reader to detect NADH produced by the PDH reaction. The hPDHK2 inhibition rate (%) of the test compound was calculated from the formula [{(PDH activity of test compound−PDH activity of control)/PDH activity of blank−PDH activity of control)}×100].

[3] = adipose tissue, 5 hr after oral administration
[4] = adipose tissue, 20 hr after oral administration
[5] = liver, 5 hr after oral administration
[6] = liver, 20 hr after oral administration

| pIC50 [2] | Compound | PDHa activity (% PDHt activity) [1, 3] [% PDHt activity] | PDHa activity (% PDHt activity) [1, 4] [% PDHt activity] | PDHa activity (% PDHt activity) [1, 5] [% PDHt activity] | PDHa activity (% PDHt activity) [1, 6] [% PDHt activity] |
| --- | --- | --- | --- | --- | --- |
| 8.04 | C[C@H](O)COc1cc(-c2cnn(CC(C)(C)O)c2)c2c(c1)[C@@](O)(C(F)(F)F)c1ccccc1-2 [compound (1), (9R)-4-[1-(2-hydroxy-2-methylpropyl)-1H-pyrazol-4-yl]-2-((2S)-2-hydroxypropoxy)-9-(trifluoromethyl)-9H-fluoren-9-ol] | 64 ± 5 | 56 ± 6 | 60 ± 8 | 13 ± 2 |
| 8.01 | CC(C)(O)COc1cc(-c2cnn(CC(C)(C)O)c2)c2c(c1)[C@@](O)(C(F)(F)F)c1ccccc1-2 [compound (2), (9R)-2-(2-hydroxy-2-methylpropoxy)-4-[1-(2-hydroxy-2-methylpropyl)-1H-pyrazol-4-yl]-9-(trifluoromethyl)-9H-fluoren-9-ol] | 58 ± 10 | 36 ± 7 | 67 ± 9 | 16 ± 9 |

Continued, compound first:

| Compound | pIC50 [2] | PDHa activity (% PDHt activity) [1, 3] [% PDHt activity] | PDHa activity (% PDHt activity) [1, 4] [% PDHt activity] | PDHa activity (% PDHt activity) [1, 5] [% PDHt activity] | PDHa activity (% PDHt activity) [1, 6] [% PDHt activity] |
| --- | --- | --- | --- | --- | --- |
| NC(=O)Cn1cc(-c2cc(OCCC34CC5CC(CC(O)(C5)C3)C4)cc3c2-c2ccccc2[C@]3(O)C(F)(F)F)cn1 [compound (A), 2-(4-{(9R)-9-Hydroxy-2-[2-(3-hydroxyadamantan-1-yl)ethoxy]-9-(trifluoromethyl)-9H-fluoren-4-yl}-1H-pyrazol-1-yl)acetamide, reference compound] |  | 32 ± 14 | 24 ± 7 | 35 ± 6 | 16 ± 10 |
| CC(C)(O)CCCOc1cc(-c2cnn(CC(C)(C)O)c2)c2c(c1)[C@@](O)(C(F)(F)F)c1ccccc1-2 [compound (4), (9R)-2-(4-hydroxy-4-methylpentyloxy)-4-[1-(2-hydroxy-2-methylpropyl)-1H-pyrazol-4-yl]-9-(trifluoromethyl)-9H-fluoren-9-ol] | 8.18 | 62 ± 13 |  | 68 ± 11 |  |
| Cn1cc(-c2cc(OCC(C)(C)O)cc3c2-c2ccccc2[C@]3(O)C(F)(F)F)cn1 [compound (B), (9R)-2-(2-Hydroxy-2-methylpropoxy)-4-(1-methyl-1H-pyrazol-4-yl)-9-(trifluoromethyl)-9H-fluoren-9-ol, reference compound] |  | 59 ± 5 | 30 ± 4 | 43 ± 7 | 10 ± 3 |
